From ChEMBL document CHEMBL1817634, “One-pot synthesis of pyrazoline derivatised carbazoles as antitubercular, anticancer agents, their DNA cleavage and antioxidant activities” (2011) come the findings set out here.

In test [1] the test system is A549. The test is described as follows: Anticancer activity against human A549 cells assessed as cell growth at 10 ug/mL by sulforhodamine B assay. The class given is functional. As to conditions: read-out: Activity.
The nature of test [2]: Antioxidant activity assessed as potassium ferric cyanide reducing power at 100 ug after 20 mins by spectrophotometry. The class given is functional.
The test system of test [3] is A498. Description: Anticancer activity against human A498 cells assessed as cell growth at 40 ug/mL by sulforhodamine B assay. Type of test: functional. The following applies: read-out: Activity. In general terms: The SRB assay estimates cell density from bound dye.
Test [4] concerns A549. Description: Anticancer activity against human A549 cells assessed as cell growth at 40 ug/mL by sulforhodamine B assay. The class given is functional. As to conditions: read-out: Activity.
For test [5], the system named is A498. Description: Cytotoxicity against human A498 cells. Type of test: functional.
Test [6] relates to A498. Description: Anticancer activity against human A498 cells assessed as cell growth at 10 ug/mL by sulforhodamine B assay. Type of test: functional. The following applies: read-out: Activity.
A short description of test [7]: Antioxidant activity assessed as potassium ferric cyanide reducing power at 50 ug after 20 mins by spectrophotometry. Type of test: functional.
Test [8] relates to A549. Description: Anticancer activity against human A549 cells assessed as cell growth at 20 ug/mL by sulforhodamine B assay. The following applies: read-out: Activity. Type of test: functional.
Test [9] concerns A549. Description: Cytotoxicity against human A549 cells. Type of test: functional.
Test [10] has as its system A498. Description: Anticancer activity against human A498 cells assessed as cell growth at 20 ug/mL by sulforhodamine B assay. The class given is functional. As to conditions: read-out: Activity.
Test [11] deals with A498. Description: Anticancer activity against human A498 cells assessed as cell growth at 80 ug/mL by sulforhodamine B assay. Type of test: functional. As to conditions: read-out: Activity.
Test [12] in a line: Antioxidant activity assessed as potassium ferric cyanide reducing power at 10 ug after 20 mins by spectrophotometry. Type of test: functional.
The subject of test [13] is Nucleic Acid. The test is described as follows: Induction of Escherichia coli DNA cleavage at 100 ug after 2 hrs by agarose gel electrophoresis. Type of test: nucleic-acid assay.
Test [14] deals with A549. The test is described as follows: Anticancer activity against human A549 cells assessed as cell growth at 80 ug/mL by sulforhodamine B assay. The class given is functional. The following applies: read-out: Activity.
For test [15], the system named is Mycobacterium tuberculosis. Description: Antitubercular activity against Mycobacterium tuberculosis H37Rv after 3 weeks by turbidity assay. As to conditions: 504 h. The class given is functional.

Converted amounts (≈) assume the structure as drawn. The source made the active and inactive calls. No cut-off for these calls is given here.

`Clc1cccc(C2CC(c3ccc4[nH]c5c(c4c3)CCCC5)=NN2)c1` (stereo unspecified): the growth at 10 µg/mL in [1] worked out at 81.6%; in [6], 100%. Besides, the values for the reducing power in [2], in test [7] and in test [12] were 0.147 absorbance, 0.066 absorbance and 0.015 absorbance, respectively. Besides, the growth at 40 µg/mL in test [3] was 97.9%; in test [4], 69.4%. Moreover, the GI50 in test [5] came to 74.3 µg/mL (≈ 212 µM); in test [9], 49.8 µg/mL (≈ 142 µM). Further, the LC50 in test [5] and in [9] was more than 80 µg/mL throughout. Also, the TGI in [5] and in [9] was more than 80 µg/mL throughout. Further, the growth at 20 µg/mL in [8] was found to be 76.2%; in [10] it was 100%. For the same compound, the growth at 80 µg/mL in test [11] is 33.5%; in test [14], 15.3%. For the same compound, the outcome in test [13] was inactive. The compound further showed an MIC in test [15] of 4.5 µg/mL (≈ 12.9 µM).
Take `O=[N+]([O-])c1ccc(C2CC(c3ccc4[nH]c5c(c4c3)CCCC5)=NN2)cc1` (stereo unspecified): the growth at 10 µg/mL in test [1] was 70.1%; in [6] it was 100%. Besides, the reducing power in [2] came to 0.675 absorbance; in test [7] it was 0.475 absorbance; in test [12], 0.195 absorbance. For the same compound, the growth at 40 µg/mL in test [3] came out at 97.7%; in [4], 50.4%. Also, the 50% growth inhibitory concentration (GI50) worked out at 56.2 µg/mL (≈ 156 µM) in test [5] and 38.2 µg/mL (≈ 106 µM) in [9]. The LC50 in test [5] and in test [9] was more than 80 µg/mL in each case. For the same compound, the TGI in [5] and in [9] was more than 80 µg/mL each time. Besides, the growth at 20 µg/mL stood at 64.4% in test [8] and 100% in test [10]. Further, the growth at 80 µg/mL was 4.1% in [11] and 4.2% in test [14]. Moreover, in test [13], the result was Active. Inhibition of growth in test [15] (MIC) required 10 µg/mL (≈ 27.7 µM).
For the compound `Clc1ccc(C2CC(c3ccc4[nH]c5c(c4c3)CCCC5)=NN2)cc1` (stereo unspecified), the growth at 10 µg/mL in [1] amounted to 83.2%; in [6] it was 100%. Further, the results for the reducing power in test [2], in test [7] and in test [12] were 0.303 absorbance, 0.191 absorbance and 0.011 absorbance, respectively. In addition, the growth at 40 µg/mL is 97.5% in [3] and 67.1% in [4]. Moreover, the figures for the GI50 in test [5] and in [9] were 72.7 µg/mL (≈ 208 µM) and 47.6 µg/mL (≈ 136 µM), respectively. For the same compound, the LC50 in test [5] and in [9] was more than 80 µg/mL in each case. Also, the TGI in [5] and in test [9] was more than 80 µg/mL in each case. The growth at 20 µg/mL worked out at 74.6% in [8] and 100% in [10]. The growth at 80 µg/mL is 31.7% in [11] and 11.5% in [14]. Further, the result in test [13] was Active. In test [15], inhibition of growth (MIC) required 3.5 µg/mL (≈ 10 µM).
Turning to `Cc1ccc(C2CC(c3ccc4[nH]c5c(c4c3)CCCC5)=NN2)cc1` (stereo unspecified), the growth at 10 µg/mL in test [1] turned out to be 11.9%; in [6] it was 99.3%. In addition, the reducing power in [2] is 0.17 absorbance; in [7], 0.11 absorbance; in [12], 0.05 absorbance. Also, the growth at 40 µg/mL in [3] is 96.2%; in [4], -18.5%. Further, the GI50 in test [5] turned out to be 54 µg/mL (≈ 164 µM); in test [9] it was 74.3 µg/mL (≈ 226 µM). Also, the LC50 in test [5] and in [9] was more than 80 µg/mL each time. Moreover, the TGI in [5] and in test [9] was more than 80 µg/mL in each case. Besides, the growth at 20 µg/mL in test [8] is -2.9%; in test [10] it was 99.2%. Besides, the growth at 80 µg/mL is 4.6% in test [11] and -28.4% in test [14]. Moreover, the outcome in test [13] was inactive. Further, inhibition of growth in test [15] (MIC) required 12 µg/mL (≈ 36.4 µM).

By GI50 is commonly meant the concentration at which growth is held to half of that of the control. A low value points to greater sensitivity of the cells. The LC50 is the concentration lethal to half of the exposed cells or organisms. What is called TGI is the concentration at which net growth stops. Low values mean greater sensitivity of the cells, high ones lower sensitivity of the cells. By MIC is commonly meant the lowest concentration that inhibits growth of the organism. The low end stands for inhibition by little substance, the high end for a need for much substance.
